# According to BindingDB's records for doi:10.1016/j.bmc.2018.06.012 (Astellas Pharma, 2018):
# pIC50: −log10 of the molar value.
# Experiment: Inhibition of PI3Kdelta in Balb/c mouse splenocytes-derived B cells assessed as reduction in anti-IgM antibody-stimulated B cell proliferation after 2 days alamar blue assay
row,Structure (SMILES),pIC50
1,COc1ncc(-c2cc(OC[C@@H]3CCCN(Cc4cn(C)nc4C)C3)c3cnn(C)c3n2)cc1NS(C)(=O)=O,8.32
2,COc1ncc(-c2cc(OC[C@@H]3CCCN(Cc4c(C)nn(C)c4C)C3)c3cnn(C)c3n2)cc1NS(C)(=O)=O,8.82
3,COc1ncc(-c2cc(OC[C@H]3CCCN(C(=O)C4CCOCC4)C3)c3cnn(C)c3n2)cc1NS(C)(=O)=O,8.11
4,COc1ncc(-c2cc(OC[C@@H]3CCCN(C(=O)C4CCOCC4)C3)c3cnn(C)c3n2)cc1NS(C)(=O)=O,8.85
5,COc1ncc(-c2cc(OC[C@@H]3CCCN(CC4CCOCC4)C3)c3cnn(C)c3n2)cc1NS(C)(=O)=O,9.54
6,COc1ncc(-c2cc(OC3CN(C(=O)C4CCOCC4)C3)c3cnn(C)c3n2)cc1NS(C)(=O)=O,7.70
7,COc1ncc(-c2cc(O[C@@H]3CCN(C(=O)C4CCOCC4)C3)c3cnn(C)c3n2)cc1NS(C)(=O)=O,8.59
8,COc1ncc(-c2cc(OC[C@@H]3CCCN(C(=O)CC4CCOC4)C3)c3cnn(C)c3n2)cc1NS(C)(=O)=O (some centres not stated),8.54
9,COc1ncc(-c2cc(OC[C@@H]3CCCN(CC4(C)COC4)C3)c3cnn(C)c3n2)cc1NS(C)(=O)=O,8.82
10,COc1ncc(-c2cc(O[C@@H]3CCN(Cc4c(C)nn(C)c4C)C3)c3cnn(C)c3n2)cc1NS(C)(=O)=O,8.68
11,COc1ncc(-c2cc(OC[C@@H]3CCCN(CCC4CCOCC4)C3)c3cnn(C)c3n2)cc1NS(C)(=O)=O,9.39
12,COc1ncc(-c2cc(OC[C@@H]3CCCN(C(=O)C4CCN(C(C)=O)CC4)C3)c3cnn(C)c3n2)cc1NS(C)(=O)=O,8.37
